In patent publication US6068838A, “Purified multimerase” (Baxter Aktiengesellschaft, priority 1996, dated 2000):

Tests used:
human fibrinogen = experiment: Incubation of other proteins with the purified protease: fibrinogen; assay type: biochemical; conditions: 0.4 mg/ml, undiluted barium-preincubated protease, 1 M urea, pH 8.0, 24 hours at 37° C.
BSA = experiment: Incubation of other proteins with the purified protease: BSA; assay type: biochemical; conditions: 0.2 mg/ml, undiluted barium-preincubated protease, 1 M urea, pH 8.0, 24 hours at 37° C.
calf skin collagen = experiment: Incubation of other proteins with the purified protease: collagen; assay type: biochemical; conditions: 0.4 mg/ml, undiluted barium-preincubated protease, 1 M urea, pH 8.0, 24 hours at 37° C.
vWF [1] = experiment: Polypeptide subunits and N-terminal sequence of vWF degraded by the purified protease; assay type: biochemical, human; conditions: from N-terminal sequences of 250, 170 and 140 kD bands
Method: For analysis of the amino acid composition and of amino acid sequence, the unreduced peak fraction of the protease and the reduced vWF fragments were dialyzed against 1 mM EDTA, were lyophilized, and were redissolved in 1/50 of the original volume before SDS-PAGE. The HMW protein bands were electrotransferred from the gel to a PVDF (polyvinyliden-difluoride) membrane (BioRad) for 6 hours at 26 V and 0.4 A, using 0.05% SDS, 10% methanol, 0.05 M boric acid, pH 9.0, as transfer buffer. After transfer, the membrane was stained with Coomassie-Blue in 40% methanol, destained in 40% methanol and 10% acetic acid, and air-dried. The excised bands were transferred to the blot cartridge of the Applied Biosystems Model 477A sequenator, which was equipped with on-line high-performance liquid chromatography for analysis of phenylthiohydantoin derivatives, For analysis of amino acid compositions, the protein bands were hydrolyzed in the gas phase over 6N HCl for 22 hours at 110° C. The amino acids were extracted from the PVDF membrane with 70% 0.1 N HCl/30% methanol and were determined by high-performance liquid chromatography as phenylthiocarbamyl derivatives. The amino acid composition of the unreduced protein band coeluted from the Sephacryl S-300 HR column together with the protease activity is shown in Table 1. […]

[2] = tested on: Recombinant vWF factor (r-vWF); experiment: Proteolytic fragmentation of recombinant vWF by the vWF protease preparation; assay type: biochemical
Method: The buffer system which had been sufficiently optimized for the instant assaying system thus comprised a dialysis Solution with 1 M urea in 5 mM Tris-HCl at pH 8. Full activation of the protease was achieved by preincubation for 5 minutes at 37° C. with 10 mM barium chloride. In a typical experiment, 50 μl activated protease solution and 100 μl substrate solution were carefully placed on a floating membrane, and incubated in a closed tube for 24 h in a dry oven at 37° C.
Recombinant vWF factor (r-vWF), produced according to FEBS-Letters 375, 259-262 (1995) with a concentration of 104 U (Ag)/ml in 20 mM TBS buffer, pH 8.3, was incubated as described above with the vWF protease preparation according to the invention.
Analysis of the r-vWF and its proteolytic degradation products was performed on 1% and 2% agarose gels, also according to the method of Ruggeri et al. (Blood 57 (1981), 1140-1143). The vWF multimers were made visible by immunoenzymatic staining according to Aihara et al. (Thromb. Haemostas. 55 (1986), 263-267). A rabbit-anti-von Willebrand factor-antiserum (from Dakopatts, Glostrup, Denmark) was used as the primary antibody, and an alkaline phosphatase-conjugated, affinity-purified goat-anti-rabbit IgG H+L-antibody (from Axell Accurate Chemical and Scientific Corp, Westburg, N.Y.) served as the secondary antibody. […]

vWF from cryoprecipitate = experiment: Degradation of plasmatic vWF (cryoprecipitate, highest molecular weight multimers) by vWF protease; assay type: biochemical, human
[3] = Plasmin activity of the protease preparation with chromogenic substrate; assay type: biochemical; conditions: preparation after copper chelate affinity chromatography
Description: Thus, it was necessary to exclude the possibility that the protease preparation might effect a degradation of the von Willebrand factor multimers due to plasmin present in the preparation rather than as a result of the vWF-specific protease.

[4] = Stability of the protease in solution; assay type: physicochemical
Description: In the absence of these ions the protease was quite stable in solution, and thus it was possible to purify the enzyme by chromatographic procedures taking place for several days at room temperature.

[5] = Stability of purified vWF fractions on dialysis incubation; assay type: physicochemical; conditions: fractions 12 to 20, 24 h dialysis incubation at 37° C., absence of inhibitors, citrate/NaCl buffer or 1 M urea buffer
Method: vWF was purified by gal filtration of human cryoprecipitate, obtained from 1 l citrated plasma, an a 2.6×35-cm column of Sepharose CL-2B (Pharmacia, Uppsala, Sweden). Elution was performed with 0.13 M sodium chloride, 0.01 M citrate, 0.01 M Tris-HCl, pH 7.4. Fractions of 6 ml were collected at a flow rate of 24 ml/h. vWF antigen was measured by ELISA by using polyclonal rabbit antiserum against human vWF (RAHu/FVIII, from Nordic (Tillburg, The Netherlands), peroxidase-labeled rabbit antihuman-vWF, mouse monoclonal antibody against rabbit IgG (M737), and the kit for immunostaining (K670) (all from Dako (Glostrup, Denmark)), according to the instructions included with the kit.
SDS agarose gels of these assays are illustrated in FIG. 2 (panels A and B).

r-vWF = experiment: Degradation of r-vWF with plasmin; assay type: biochemical
plasmatic vWF = experiment: Degradation of plasmatic vWF (cryoprecipitate) with plasmin; assay type: biochemical, human; conditions: overnight digestion
vWF [6] = conditions: after cleavage with plasmin; cited from earlier work

Molecule: protease: von Willebrand factor cleaving protease purified from human plasma, named multimerase; converts singlet vWF to satellite structure
- degradation of human fibrinogen (human fibrinogen): no degradation
- degradation of BSA (BSA): no degradation
- degradation of calf skin collagen (calf skin collagen): no degradation
- peptide bond of vWF cleaved (vWF [1]): 842Tyr-843Met
- multimer pattern of r-vWF after incubation with protease ([2]; after 3 h): loss of the highest multimers
- multimer pattern of r-vWF after incubation with protease ([2]; after 20 hours): oligomers and multimers could no longer be detected
- multimer pattern of cryoprecipitate vWF on incubation with vWF protease (vWF from cryoprecipitate; cryoprecipitate): loss of multimers could be observed over time
- multimer pattern of highest molecular weight vWF multimers preparation with vWF protease (vWF from cryoprecipitate; laboratory preparation 10 U (Ag)/ml in 20 mm TBS buffer, pH 8.3): clear shift towards lower molecular weight multimers
- plasmin activity [3]: 0.2 U/ml
- stability of the protease in solution ([4]; in the absence of calcium, strontium and barium ions): quite stable
- protease activity after prolonged preincubation ([4]; prolonged preincubation with calcium, strontium and barium, even at physiological salt and without urea): loss of protease activity

Molecule: vWF: vWF purified by gel filtration of human cryoprecipitate, fractions 12 to 20
- stability of vWF (multimer pattern) [5]: very stable

B1: plasmin: human plasmin from Chromogenics, serine protease used as comparison (protein, UniProt P00747 20-580; P00747 581-810, looked up)
Plasmin heavy chain A: EPLDDYVNTQGASLFSVTKKQLGAGSIEECAAKCEEDEEFTCRAFQYHSKEQQCVIMAENRKSSIIIRMRDVVLFEKKVYLSECKTGNGKNYRGTMSKTKNGITCQKWSSTSPHRPRFSPATHPSEGLEENYCRNPDNDPQGPWCYTTDPEKRYDYCDILECEEECMHCSGENYDGKISKTMSGLECQAWDSQSPHAHGYIPSKFPNKNLKKNYCRNPDRELRPWCFTTDPNKRWELCDIPRCTTPPPSSGPTYQCLKGTGENYRGNVAVTVSGHTCQHWSAQTPHTHNRTPENFPCKNLDENYCRNPDGKRAPWCHTTNSQVRWEYCKIPSCDSSPVSTEQLAPTAPPELTPVVQDCYHGDGQSYRGTSSTTTTGKKCQSWSSMTPHRHQKTPENYPNAGLTMNYCRNPDADKGPWCFTTDPSVRWEYCNLKKCSGTEASVVAPPPVVLLPDVETPSEEDCMFGNGKGYRGKRATTVTGTPCQDWAAQEPHRHSIFTPETNPRAGLEKNYCRNPDGDVGGPWCYTTNPRKLYDYCDVPQCAAPSFDCGKPQVEPKKCPGR
Plasmin light chain B: VVGGCVAHPHSWPWQVSLRTRFGMHFCGGTLISPEWVLTAAHCLEKSPRPSSYKVILGAHQEVNLEPHVQEIEVSRLFLEPTRKDIALLKLSSPAVITDKVIPACLPSPNYVVADRTECFITGWGETQGTFGAGLLKEAQLPVIENKVCNRYEFLNGRVQSTELCAGHLAGGTDSCQGDSGGPLVCFEKDKYILQGVTSWGLGCARPNKPGVYVRVSRFVTWIEGVMRNN
modifications: Plasmin
notes: human plasmin from Chromogenics, serine protease used as comparison
- degradation of recombinant vWF (r-vWF; overnight digestion): completely degraded
- degradation of r-vWF multimers (kinetic examination) (r-vWF; plasmin 0.2 U/ml admixed 1:1 with r-vWF, 37° C.): successive degradation of the multimers over 29 h
- degradation of r-vWF (r-vWF; plasmin concentration reduced to 1:10): degraded more slowly
- degradation of plasmatic vWF (plasmatic vWF): completely degraded
- platelet agglutinating activity (ristocetin cofactor) retained by high molecular weight core region of vWF (vWF [6]): about 70%
